Test results taken from the supplement of paper PMC8967900.

Key:
Assay in all cases: selective drug sensitivity score (sDSS, relative to normal bone marrow) (sDSS (score)); higher = more potent and effective on the cell line relative to normal bone marrow cells
Conditions in all cases: 72 h
NALL-1 = system: NALL-1
KARPAS-45 = system: KARPAS-45
PF-382 = system: PF-382
COG-LL-402h = system: COG-LL-402h
ALL-SIL = system: ALL-SIL
RCH-ACV = system: RCH-ACV
SUP-B15 = system: SUP-B15
MN-60 = system: MN-60
JURKAT = system: JURKAT
DND-41 = system: DND-41
MOLT-4 = system: MOLT-4
P30-OHKUBO = system: P30-OHKUBO
LC4-1 = system: LC4-1
CCRF-HSB2 = system: CCRF-HSB2
KASUMI-2 = system: KASUMI-2
RPMI-8402 = system: RPMI-8402
SEM cells = system: SEM cells
HPB-ALL = system: HPB-ALL
KASUMI-10 = system: KASUMI-10
MHH-CALL-2 = system: MHH-CALL-2
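Also: ALL cell lines in 384-well plates, five doses spanning 10,000-fold, each plate scaled between vehicle and 100 µmol/L benzalkonium chloride controls, sDSS an adapted area-under-curve metric.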

Row | Compound | selective drug sensitivity score (NALL-1) | selective drug sensitivity score (KARPAS-45) | selective drug sensitivity score (PF-382) | selective drug sensitivity score (COG-LL-402h) | selective drug sensitivity score (ALL-SIL) | selective drug sensitivity score (RCH-ACV) | selective drug sensitivity score (SUP-B15) | selective drug sensitivity score (MN-60) | selective drug sensitivity score (JURKAT) | selective drug sensitivity score (DND-41) | selective drug sensitivity score (MOLT-4) | selective drug sensitivity score (P30-OHKUBO) | selective drug sensitivity score (LC4-1) | selective drug sensitivity score (CCRF-HSB2) | selective drug sensitivity score (KASUMI-2) | selective drug sensitivity score (RPMI-8402) | selective drug sensitivity score (SEM cells) | selective drug sensitivity score (HPB-ALL) | selective drug sensitivity score (KASUMI-10) | selective drug sensitivity score (MHH-CALL-2)
1 | CCOC(=O)CCNc1cc(N2CCc3ccccc3CC2)nc(-c2ccccn2)n1 [GSK-J4] (top concentration 100000 nM) | -9.18 | -7.28 | -7.58 | -7.88 | -4.58 | -8.58 | -8.48 | -6.58 | -5.98 | -6.88 | -7.98 | -8.18 | -9.58 | -7.18 | -10.8 | -8.18 | -8.58 | 1.62 | -11.8 | -7.18
2 | Cc1cc(Nc2cc(CN3CCOCC3)c3nc(C)c(Cc4ccc(Cl)cc4F)n3n2)n[nH]1 [Gandotinib] (top concentration 10000 nM) | 4.88 | 9.48 | 1.88 | 5.28 | 9.08 | 8.88 | 7.78 | -3.22 | 3.98 | 7.28 | 4.88 | 6.28 | 6.98 | 5.98 | 7.18 | 0.78 | 10.5 | 1.58 | 7.28 | 7.48
3 | NC(=O)NO [Hydroxyurea] (top concentration 1000000 nM) | -3.74 | 2.86 | 1.26 | 1.56 | 3.56 | 9.66 | 9.96 | -0.04 | 3.16 | 1.16 | 1.56 | 7.66 | 5.26 | 6.66 | -2.14 | 3.46 | 5.36 | -1.24 | 1.86 | 4.56
4 | Cc1ccc(NC(=O)c2ccc(CN3CCN(C)CC3)cc2)cc1Nc1nccc(-c2cccnc2)n1 [Imatinib] (top concentration 10000 nM) | -0.44 | 1.96 | -0.24 | -0.44 | 24.9 | 2.16 | 17.4 | -0.44 | 0.66 | 0.26 | -0.34 | 0.06 | 0.36 | 7.96 | -0.44 | 1.46 | 0.06 | 1.06 | -0.44 | 0.16
5 | CC(C)NC[C@@H](C(=O)N1CCN(c2ncnc3c2[C@H](C)C[C@H]3O)CC1)c1ccc(Cl)cc1 [Ipatasertib] (top concentration 10000 nM) | 1.8 | 5.2 | 4.2 | 7.3 | 2.9 | 12 | 0.8 | -1.8 | 7.1 | 1.1 | 7.1 | 1.9 | -0.6 | 0.3 | 7.9 | 4.8 | 3.3 | 0.9 | 0.7 | 4.7
6 | CCC(C)n1ncn(-c2ccc(N3CCN(c4ccc(OCC5COC(Cn6cncn6)(c6ccc(Cl)cc6Cl)O5)cc4)CC3)cc2)c1=O (stereo not given) [Itraconazole] (top concentration 5000 nM) | -4.12 | 6.18 | 0.38 | -2.12 | 2.88 | 5.48 | 1.18 | -2.42 | 1.58 | 6.98 | -1.92 | -2.62 | 2.88 | 2.08 | -3.22 | 0.98 | -2.32 | 5.68 | -4.32 | 5.48
7 | Cc1sc2c(c1C)C(c1ccc(Cl)cc1)=N[C@@H](CC(=O)OC(C)(C)C)c1nnc(C)n1-2 [JQ1] (top concentration 10000 nM) | 0.42 | 9.32 | 5.22 | 8.12 | -1.08 | 12.3 | 3.02 | 6.62 | -0.48 | 2.52 | -4.28 | 8.72 | 5.02 | 0.72 | -5.08 | 3.12 | 11.4 | 1.32 | 7.22 | 9.62
8 | CCNC(=O)c1noc(-c2cc(C(C)C)c(O)cc2O)c1-c1ccc(CN2CCOCC2)cc1 [Luminespib] (top concentration 1000 nM) | -5.8 | -2.7 | -1.4 | 4.1 | -0.1 | 3.6 | -1 | -4.6 | -5.5 | -2 | -1.1 | -3.9 | -1.4 | 6.7 | 6.5 | -3.8 | 2.1 | -2.5 | 4.4 | -3.9
